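Cultured in 96-well plates, cells were exposed to test compound for 48 hours across five concentrations. The concentration for 50% growth inhibition is given as GI50.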 Calls of active or inactive are those of the source. Rule as the data show it: active = GI50 up to about 1.1 µM and inactive = higher.
What was measured:
Test in all cases: NCI tumour cell line growth inhibition, 48 h
KM-20L2 = tested on: KM-20L2
RXF 631 = tested on: RXF 631
XF498 = tested on: XF498
M19-MEL = tested on: M19-MEL
LXFL 529 = tested on: LXFL 529
DMS-273 = tested on: DMS-273
HOP-18 = tested on: HOP-18
SNB-78 = tested on: SNB-78
DMS-114 = tested on: DMS-114

Measured: GI50

COc1ccc(C2=Nc3ccccc3NC(=O)C2)cc1
inactive: KM-20L2 55.7 µM | RXF 631 > 100 µM | XF498 20.1 µM | M19-MEL 48.3 µM | LXFL 529 > 100 µM | DMS-273 27.4 µM | HOP-18 > 100 µM | SNB-78 25.2 µM | DMS-114 20.7 µM

O=C(/C=C/c1c(O)ccc2ccccc12)c1ccccc1
inactive: KM-20L2 > 100 µM | RXF 631 > 100 µM | XF498 > 100 µM | M19-MEL 29.4 µM | LXFL 529 > 100 µM | DMS-273 > 100 µM | HOP-18 36.8 µM | SNB-78 > 100 µM | DMS-114 > 100 µM

Cc1cc2cc(Cl)ccc2nc1C(=O)c1ccccc1
inactive: KM-20L2 > 100 µM | RXF 631 > 100 µM | XF498 > 100 µM | M19-MEL > 100 µM | LXFL 529 > 100 µM | DMS-273 > 100 µM | HOP-18 > 100 µM | SNB-78 > 100 µM | DMS-114 > 100 µM

O=C(O)CCC(=O)N1C/C(=C\c2ccccc2)C(=O)/C(=C/c2ccccc2)C1
inactive: KM-20L2 2.92 µM | RXF 631 3.66 µM | XF498 2.7 µM | M19-MEL 1.75 µM | LXFL 529 2.67 µM | DMS-273 2.16 µM | HOP-18 5.55 µM | SNB-78 7.24 µM | DMS-114 2.18 µM

Source: ChEMBL document CHEMBL1201862, “PubChem BioAssay data set” (2004)
